The text below walks through data of ChEMBL document CHEMBL1139025, “Biological studies of photoinducible phenol quaternary ammonium derivatives” (2006).

Each structure is given as a SMILES string. The source made the active and inactive calls. No cut-off for these calls is given here.

What all share (type): functional
The subject of test [1] is THP-1. Kind of test: Apoptotic activity against illuminated human THP1 cells at 0.05 mM.
Another test has as its system Nucleic Acid. The experiment in a line: Inhibition of DNA transcription by photoactivation at 10 uM.
Test [2] deals with THP-1. Kind of test: Apoptotic activity against human THP1 cells at 0.05 mM.

For `C[N+](C)(C)Cc1cc(-c2ccc(O)c(C[N+](C)(C)C)c2)ccc1O.[I-].[I-]`, the Activity in the test on THP-1 [1] is 62.03%; in the test with THP-1 [2], 3.01%. Further, the result in the test with Nucleic Acid was Active.

With `C[N+](C)(C)Cc1cc(O)c(C[N+](C)(C)C)cc1O`, the outcome in the test with Nucleic Acid was Active.
